# According to patent publication US6537967B1, “Pentamer peptide amide, ALGPGNH2, which inhibits viral infectivity and methods of use thereof” (Tripep AB, priority 2001, dated 2003):
# Peptide text beside a SMILES is read from it.
# Tests used:
# Type in all cases: cell-based
# HIV-1 SF-2 = HIV-1 SF-2 infectivity assay in H9 cells (RT activity and p24 in culture supernatant); settings: 25 TCID50, FIG. 1
# Procedure: (§1) In this example, the methods that were used to analyze the ability of ALGPG-NH2 (SEQ. ID. NO.: 1) to inhibit HIV- l replication are disclosed. HIV-1 SF-2 stock was prepared from HUT78 cells and two clinical isolates were prepared from donor's peripheral blood mononuclear cells (PBMC). The virus infected cells were propagated and maintained in RPMI 1640 medium supplemented with 10% heat inactivated fetal bovine serum (GIBCO Laboratories) with penicillin and streptomycin (100 μg/ml each). PBMCs were purified by Ficoll-Hypaque density gradient centrifugation and stimulated with phytohemagglutinin (KEBO laboratories, Sweden) for three days in RPMI 1640 medium supplemented with 10% heat inactivated fetal bovine serum (GIBCO Laboratories) with penicillin and streptomycin (100 μg/ml each).
# Approximately 10^5 of H9 cells were infected with HIV-1 SF-2, obtained as described above, at 25 TCID50 to test the inhibitory effect of ALGPG-NH2 (SEQ. ID. NO.: 1). The H9 cells were resuspended with or without ALGPG-NH2 (SEQ. ID. NO.: 1) (at approximately 5 μM, 20 μM, and […]) in 1 ml of RPMI 1640 medium supplemented with 10% (v/v) heat-inactivated fetal bovine serum (FBS), penicillin (100 μ/ml), and streptomycin (100 u/ml), all available through GIBCO, and Polybrene (2 μg/ml), available through Sigma. Thereafter, viruses were added at 25 TCID50 in a volume of 20-30 μl. Cells were incubated with virus at 37° C. for 1 hr then pelleted at 170×g for 7 minutes. The cells were then washed three times in RPMI medium with or without peptides at room temperature and pelleted at 170×g for 7 minutes, as above. […]
# Culture supernatants were collected and analyzed when the medium was changed at 4, 7, 10, and 14 days post infection. […] The amount of RT was determined with the aid of a regression line of standards. The presence of p24 in the supernatants was determined using a commercially available HIV p24 antigen detection kit (ELISA kit from Abbott Laboratories, North Chicago, U.S.A.).
# HIV-1 clinical isolate 1 = HIV-1 clinical isolate 1 infectivity assay in PBMC (p24 in culture supernatant); settings: FIG. 2
# Procedure: as §1
# (§2) The infectivity assays of the HIV-1 clinical isolates were performed, as above, in PBMC, which were stimulated for three days with 2.5 μg/ml of phytohemagglutinin (DIFCO, New Jersey). Cells were cultured in RPMI 1640 medium supplemented with 10% (v/v) heat-inactivated fetal bovine serum (FBS), penicillin (100 u/ml), and streptomycin (100 u/ml), all available through GIBCO, and Polybrene (2 μg/ml), available through Sigma. […] The production of p24 in the culture supernatent was monitored using a commercially available HIV p24 antigen detection kit (ELISA kit from Abbott Laboratories, North Chicago, U.S.A.).
# HIV-1 clinical isolate 2 = HIV-1 clinical isolate 2 infectivity assay in PBMC (p24 in culture supernatant); settings: FIG. 2
# Procedure: as §1, §2
structure (smiles),measurement,setting,value
CC(C)C[C@H](NC(=O)[C@H](C)N)C(=O)NCC(=O)N1CCC[C@H]1C(=O)NCC(N)=O [ALGPG-NH2] (H-ALGPG-NH2; N-terminus assumed),inhibition of HIV-1 SF-2 infection,HIV-1 SF-2; 5 μM peptide amide,approximately 50%
same,inhibition of HIV-1 SF-2 infection,HIV-1 SF-2; 20 μM peptide amide,almost complete
same,inhibition of HIV-1 SF-2 infection,HIV-1 SF-2; 100 μM peptide amide,almost complete
same,inhibition of isolate 1,HIV-1 clinical isolate 1; 20 μM,approximately 20%
same,inhibition of isolate 1,HIV-1 clinical isolate 1; 100 μM,almost complete
same,inhibition of isolate 2,HIV-1 clinical isolate 2; 20 μM,approximately 50%
same,inhibition of isolate 2,HIV-1 clinical isolate 2; 100 μM,almost complete
